Test results as given in patent US20260007639A1, “COMPOUNDS FOR THE TREATMENT OF NEUROMUSCULAR DISORDERS” (NMD PHARMA A/S, priority 2017, published 2026).
Like-named read-outs stand apart in the source and are kept apart here.

Columns and labels:
rat soleus muscles [1] = assay: Mg2+ concentration required to depress nerve-stimulated force by 50% (Kd,Mg2+), combination with 3,4-AP (Table 5); conditions: pre-incubation with 10 μM 3,4-AP
Experimental: Muscles from 4-week-old rats were stimulated to contract by activating the motor nerve with short duration pulses in field stimulation. Muscles contracted every 10 min for 2 s in response to 30 Hz stimulation. Four different experimental conditions were used. […] FIG. 6C similar to FIG. 6A but this muscle had been pre-incubated with 3,4-AP. […] The force integral (AUC) was determined at each extracellular Mg^2+ concentration. AUC was plotted against Mg^2+ concentration and the data was fitted to a sigmoidal function. This provided the extracellular Mg^2+ concentration that was required to reduce the nerve-stimulated force to 50% (Mg50) under the four different conditions (see Table 4).
While the use of tubocurarine mimics conditions with reduced neuromuscular transmission due to post-synaptic dysfunction (myasthenia gravis, neuromuscular blockade), the experiments with elevated extracellular Mg^2+ mimics conditions with pre-synaptic dysfunction akin to a range of neuromuscular disorders including Lambert Eaton syndrome, motor neuron disorders and polyneuropathy. […] Based on this it was determined whether recovery of nerve-stimulated force at elevated extracellular Mg^2+ with CIC-1 inhibiting compounds could be added to force recovery with 3,4-AP. […] To quantify the effect of compounds on Mg^2+ sensitivity the force at the different Mg^2+ concentrations was determined. […]

rat soleus muscles [2] = assay: Recovery of nerve-stimulated force in isolated rat soleus muscles exposed to sub-maximal tubocurarine (Table 1); conditions: % change in AUC compared to AUC before addition, after 40 min in tubocurarine
Experimental: The motor nerve was stimulated every 10 min for 2 s with 30 Hz with field stimulation using short duration pulses. […] Traces are shown before addition tubocurarine, after 40 min with tubocurarine, and after 110 min tubocurarine. […] This recovery of force was used in Table 1.
Experiments were performed using rat soleus muscles from either young (4-wk-old) or adult Wistar rats (12-14-week-old). Animal handling, killing and isolation of muscle is described elsewhere All experiments were performed using normal Krebs-Ringer bicarbonate solution (NKR). In solutions with elevated Mg^2+, MgCl^2 was added to NKR-solution causing minor increases in osmolarity and ionic strength. In solutions with elevated K^+, 4 mM NaCl was replaced by 4 mM KCl in the NKR.
In all contraction experiments, isometric force production was determined and force produced during contractions was quantified by measuring the integral of the force response (AUC). Stimulation and force recordings have been described elsewhere. […] In these latter experiments, extracellular recordings of action potentials (M-waves) could be measured without temporal overlap with stimulation artefacts.
The aim was to find compounds that by inhibition of CIC-1 channels can recover nerve-stimulated force under conditions of fatigue including conditions where fatigue is caused by compromised neuromuscular transmission. Neuromuscular transmission dysfunction can develop because of both pre- and/or post-synaptic complications in connection with a disorder or as part of neuromuscular blockade during/after surgery. In the initial series of drug testing, experiments were performed with isolated muscles in the presence of sub-maximal ACh receptor antagonist tubocurarine. Since the inclusion of tubocurarine caused a partial loss of neuromuscular transmission this experiment mimics the conditions in myasthenia gravis and neuromuscular blockade. To mimic conditions with pre-synaptic complication (Lambert Eaton syndrome, motor neuron disorder, polyneuropathy) the intact nerve-muscle preparations were incubated at elevated extracellular Mg^2+, which is known to suppress release of ACh from nerve terminals of motor neurons. […]
For comparison with the muscle only exposed to tubocurarine (grey trace), the two traces have been overlaid. […] For comparison, muscles only exposed to tubocurarine have been included. The dotted line indicates the recovery of force with C8 when compared to the force production before its addition. This value was used in Table 1 for evaluation of the efficacy of the different compounds in recovering force.

rats [3] = assay: Rotarod running performance of rats after I.P. tubocurarine (myasthenia like phenotype); format: in vivo, rat; conditions: C8 20 mg/kg I.P. 2 hrs before tubocurarine 0.13 mg/kg I.P.; tested 21 minutes after tubocurarine
Experimental: FIG. 9A illustrates the design of the experiments. Prior to Day One the animals had been familiarized to the rotarod in three training sessions distributed over two days.
(§1) In both series of experiments, running performance was tested on a rotarod using a protocol where the rod was accelerated gradually over a 5 min period, and the running time and covered distance before falling off the rod were measured.
Experiments with tubocurarine were carried out over two days, and on each day the effect of tubocurarine on running performance was tested. On the first day only tubocurarine was injected. […] On the second day, the animals were first allowed to run on the rotarod, and all animals performed normally. […] The allocation of the animals into the two groups (C8 or sham) was random and unknown to the experimenter (blinded experimental design).
In the first series of in vivo experiments, myasthenia gravis was simply mimicked by I.P. injection of tubocurarine (0.13 mg/kg) in animals that had been familiarized to running on the rotarod. On the first of two consecutive days, tubocurarine was injected I.P. and the running performance of the animal was tested 21 minutes after this injection. On the second day of experimentation, the animals first performed a test run to ensure that they were no longer affected by the tubocurarine injected the day before. […]

[4] = Pharmacokinetic analysis of a single I.P. dose of C8 in rats (Table 6); format: in vivo, Sprague-Dawley rats; conditions: one-bolus I.P. injection
Experimental: This part of the study was performed by Pipeline Biotech A/S (Spørring, Denmark). […] Plasma concentrations (free and bound) were determined by OnTarget Chemistry (Uppsala, Sweden, Project No.: PB243-001).
Before conducting in vivo experiments with animal models of myasthenia gravis, some pharmacokinetic details were obtained for C8 in response to one-bolus I.P. injection.

rat soleus muscles [5] = assay: Tubocurarine concentration required to depress nerve-stimulated force by 50% (Kd,tub), combination with neostigmine or pyridostigmine (Table 4); conditions: pre-incubation with 50 μM C8, 10 nM neostigmine or both
Experimental: Muscles from 4-week-old rats were stimulated to contract by activating the motor nerve with short duration pulses in field stimulation. Muscles contracted every 10 min for 2 s in response to 30 Hz stimulation. Four different experimental conditions were used. […] After this pre-incubation, increasing concentrations of tubocurarine were added to the bath solutions with 60 min (corresponding to six contractions) between each increase in tubocurarine. […] FIG. 5C similar to FIG. 5A but this muscle had been pre-incubated with neostigmine. […] The force integral (AUC) was determined at each tubocurarine concentration. Such AUC determinations were plotted against tubocurarine concentration for each muscle.
CIC-1 is a novel target in treatment of neuromuscular complications and it was therefore explored whether this approach for symptomatic treatment could be used in combination with existing symptomatic treatment approaches. […] To quantify the effect of compounds on tubocurarine sensitivity, the force at the different tubocurarine concentrations was determined. In plots of nerve-stimulated force against tubocurarine concentration (FIG. 5E) Kd, tub was determined by fitting four parameter sigmoidal functions to the data and the Kd, tub for the different compounds have been collected in Table 4.

rat soleus muscles [6] = assay: Recovery of nerve-stimulated force in isolated rat soleus muscles exposed to 3.5 mM Mg2+ (Table 2); conditions: rat soleus exposed to 3.5 mM Mg2+, force before addition 38 ± 6 % of control
rat soleus muscles [7] = assay: Recovery of nerve-stimulated force in isolated rat soleus muscles with ACh receptors inhibited by 2 μM rocuronium; conditions: 50 μM C8 added in the presence of 2 μM rocuronium; 8 muscles; p<0.01
Experimental: In a separate series of experiments with 8 isolated rat soleus muscles, ACh receptors were inhibited using 2 μM rocuronium, which is a clinically used neuromuscular blocking agent. Under these conditions the nerve-stimulated force was reduced to 51±5% of force before rocuronium. […] This illustrates the potential of these compounds to be used as reversal agents.

rats [8] = assay: Rotarod running performance in passive myasthenia gravis induced in rats with MAB35 monoclonal antibody; format: in vivo, rat; conditions: rats with stable reduction in performance after MAB35, versus sham
Experimental: Prior to I.P. injection of MAB35 the animals had been familiarized to the rotarod over three training sessions distributed over two days. […] After this treatment performance was monitored every second hour. * Indicates significant different as evaluated using student t-test.
as §1
In experiments with MAB35, animals were first familiarized with the rotarod over two consecutive days and then injected I.P. with MAB35. After injection, rotarod performance was then again monitored regularly over the consecutive two days. […] A considerable number of animals, however, became moribund failing to walk and they had altered ventilation (rapid) and pronounced ptosis. These animals were not included in experiments.
In the last series of experiments, myasthenia gravis was mimicked in rats by inducing an immunological reaction against the motor endplate of muscle fibers using monoclonal antibody against the nicotinic ACh receptor in muscle fibers. Again the animals had been familiarized to the rotarod before the MAB35 injection. […] From FIG. 10 it can be seen that upon injection sham treatment the performance further declined.

human muscles = conditions: 150 μM C8; isolated human muscle
rat soleus muscle = format: cell-based; conditions: μ-conotoxin GiiiB present

Nc1ccncc1N [3,4-AP, 3,4-diaminopyridine]
nerve-stimulated force at elevated Mg2+ compared to control (rat soleus muscles [1]): remain elevated

C[C@H](Oc1ccc(Br)cc1)C(=O)O [Compound C8, (2S)-2-(4-bromophenoxy)propanoic acid]
50 μM % change after addition (AUC force) (rat soleus muscles [2]; 50 μM compound): 16% | 150 μM % change after addition (AUC force) (rat soleus muscles [2]; 150 μM compound): 23% | increase in running performance (distance on rotarod) on the second day compared to the first day (rats [3]): around 150% | AUC 0-inf_obs [4]: 205.381 µg·h/mL | AUC 0-t [4]: 203.635 µg·h/mL | C0 [4]: 24533 ng/mL | CI_obs [4]: 48.69 mL/h | Cmax [4]: 44600 ng/mL | Tmax [4]: 0.5 h | VD_obs [4]: 259.62 mL | t1/2 [4]: 3.70 h | nerve-stimulated force at different tubocurarine concentrations compared to control (rat soleus muscles [5]): elevated nerve-stimulated force | 50 μM % change after addition (AUC force) (rat soleus muscles [6]; 50 μM compound): 13 ± 4% | 100 μM % change after addition (AUC force) (rat soleus muscles [6]; 100 μM compound): 26 ± 5% | nerve-stimulated contractile force, % of force before rocuronium (rat soleus muscles [7]): 81±4% | rotarod running performance after treatment (rats [8]; C8 20 mg/kg): decline was reduced | rotarod running performance after treatment (rats [8]; C8 30 mg/kg): clear recovery of performance | contractile force at elevated K+ and TTX (human muscles): markedly recovery | EPP amplitude compared to control conditions (rat soleus muscle; 10 μM C8): significantly larger EPPs | EPP amplitude compared to control conditions (rat soleus muscle; 25 μM C8): significantly larger EPPs

CN(C)C(=O)Oc1cccc([N+](C)(C)C)c1 [neostigmine, reference compound]
nerve-stimulated force at different tubocurarine concentrations compared to control (rat soleus muscles [5]): elevated nerve-stimulated force
